Experimental data: PMC12753884, “Naringenin targets FimZ to regulate type I fimbriae and reduce the virulence of Salmonella” (Frontiers in Cellular and Infection Microbiology, 2025)

What was measured:
Assay type in all cases: binding
FimZ [1] = target: T1, FimZ (Salmonella enterica, UniProt P26319); test: SPR (Biacore X100, His-antibody capture on CM5 chip); EMSA support
T1 construct: Flag-FimZ-His, whole fimZ fragment of SL1344 in pET-28a

FimZ [2] = target: T2, FimZ (Salmonella enterica, UniProt P26319, T138A); test: SPR (Biacore X100, His-antibody capture on CM5 chip)
T2 construct: Flag-FimZ-His mutant
T2 sequence (P26319 1-210 T138A): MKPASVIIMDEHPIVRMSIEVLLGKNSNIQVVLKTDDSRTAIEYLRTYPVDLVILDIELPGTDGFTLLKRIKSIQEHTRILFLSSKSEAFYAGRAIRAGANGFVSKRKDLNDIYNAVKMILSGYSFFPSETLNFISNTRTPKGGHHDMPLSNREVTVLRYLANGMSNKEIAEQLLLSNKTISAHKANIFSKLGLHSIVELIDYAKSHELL

FimZ [3] = target: T3, FimZ (Salmonella enterica, UniProt P26319, I135A); test: as above
T3 construct: Flag-FimZ-His mutant
T3 sequence (P26319 1-210 I135A): T2 sequence (P26319 1-210 T138A)

## O=C1C[C@@H](c2ccc(O)cc2)Oc2cc(O)cc(O)c21 [Nar, naringenin]
FimZ [1]
  Kd: 33.9 µM
FimZ [2]
  Kd: 412 µM
FimZ [3]
  Kd: 152 µM
